Laboratory results reported in US20260184713A1, “KINASE INHIBITORS” (The United States of America, as represented by the …, priority 2022, published 2026).
Read-outs that look alike come from different tables or passages of the source.

Legend:
Experiment in all cases: HOTSPOT radiometric kinase assay
PKG2 = target: T1, PKG2 (Homo sapiens, UniProt Q13237); assay type: biochemical; details: 10 μM ATP
T1 construct: purchased Reaction Biology Corp

PKD2 = target: T2, PKD2 (Homo sapiens, UniProt Q9BZL6); assay type: biochemical; details: 10 μM ATP
T2 construct: purchased Reaction Biology Corp

IRAK2 = target: T3, IRAK2 (Homo sapiens, UniProt O43187); assay type: biochemical; details: 10 μM ATP
T3 construct: purchased Reaction Biology Corp

CLK4 = target: T4, CLK4 (Homo sapiens, UniProt Q9HAZ1); assay type: biochemical
T4 construct: purchased Reaction Biology Corp

PKCv/PKD3 = target: T5, PKCv/PKD3 (Homo sapiens, UniProt O94806); assay type: biochemical
T5 construct: purchased Reaction Biology Corp
T5 sequence (O94806 1-890): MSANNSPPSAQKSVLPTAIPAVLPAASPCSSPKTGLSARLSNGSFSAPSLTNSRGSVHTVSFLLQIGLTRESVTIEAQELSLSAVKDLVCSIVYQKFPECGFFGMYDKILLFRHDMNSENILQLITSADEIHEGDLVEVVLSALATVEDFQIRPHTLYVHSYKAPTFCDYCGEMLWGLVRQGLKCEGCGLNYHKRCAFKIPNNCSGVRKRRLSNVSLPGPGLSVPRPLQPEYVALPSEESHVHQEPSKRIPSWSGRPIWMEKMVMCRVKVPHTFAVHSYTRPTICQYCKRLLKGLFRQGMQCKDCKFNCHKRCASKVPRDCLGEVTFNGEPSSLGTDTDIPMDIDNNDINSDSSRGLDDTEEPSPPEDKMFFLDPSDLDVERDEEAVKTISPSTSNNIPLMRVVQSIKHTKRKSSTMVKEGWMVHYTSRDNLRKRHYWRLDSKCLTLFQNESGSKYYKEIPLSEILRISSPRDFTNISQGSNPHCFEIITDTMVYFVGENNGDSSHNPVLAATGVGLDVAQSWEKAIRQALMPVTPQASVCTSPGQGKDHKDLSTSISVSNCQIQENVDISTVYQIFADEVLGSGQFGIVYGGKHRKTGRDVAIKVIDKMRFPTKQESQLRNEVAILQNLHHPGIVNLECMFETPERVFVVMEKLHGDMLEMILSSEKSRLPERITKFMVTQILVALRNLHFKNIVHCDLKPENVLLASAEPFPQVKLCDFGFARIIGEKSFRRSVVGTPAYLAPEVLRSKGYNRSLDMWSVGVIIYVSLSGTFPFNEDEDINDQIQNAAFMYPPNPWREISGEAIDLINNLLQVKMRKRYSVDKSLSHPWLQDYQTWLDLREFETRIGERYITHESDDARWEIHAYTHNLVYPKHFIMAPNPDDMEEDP

FLT3 = target: T6, FLT3 (Homo sapiens, UniProt P36888); assay type: biochemical
T6 construct: purchased Reaction Biology Corp

PKCμ/PKD1 = target: T7, PKCμ/PKD1 (Homo sapiens, UniProt Q15139); assay type: biochemical; details: 10 μM ATP
T7 construct: purchased Reaction Biology Corp

DYRK2 = target: T8, DYRK2 (Homo sapiens, UniProt Q92630); assay type: biochemical
T8 construct: purchased Reaction Biology Corp
T8 sequence (Q92630 1-601): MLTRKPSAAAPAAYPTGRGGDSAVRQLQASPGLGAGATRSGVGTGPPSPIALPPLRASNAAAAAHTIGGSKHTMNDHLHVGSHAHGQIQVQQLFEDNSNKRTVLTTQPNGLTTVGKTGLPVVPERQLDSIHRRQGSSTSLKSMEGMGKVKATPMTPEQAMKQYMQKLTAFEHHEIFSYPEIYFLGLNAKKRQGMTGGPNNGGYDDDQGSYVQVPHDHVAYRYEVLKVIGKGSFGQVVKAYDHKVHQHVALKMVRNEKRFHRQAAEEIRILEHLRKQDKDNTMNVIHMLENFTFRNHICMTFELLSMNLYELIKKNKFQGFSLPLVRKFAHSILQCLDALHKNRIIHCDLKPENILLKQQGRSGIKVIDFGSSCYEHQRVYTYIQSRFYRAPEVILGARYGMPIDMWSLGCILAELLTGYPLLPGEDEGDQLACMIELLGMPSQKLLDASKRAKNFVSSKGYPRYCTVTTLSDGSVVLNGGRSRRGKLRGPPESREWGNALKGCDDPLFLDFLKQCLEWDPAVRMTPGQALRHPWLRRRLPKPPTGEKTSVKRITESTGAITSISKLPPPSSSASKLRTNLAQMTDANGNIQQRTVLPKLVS

ROCK2 = target: T9, ROCK2 (Homo sapiens, UniProt O75116); assay type: biochemical; details: 10 μM ATP
T9 construct: purchased Reaction Biology Corp

PKN1 = target: T10, PKN1 (Homo sapiens, UniProt Q16512); assay type: biochemical; details: 10 μM ATP
T10 construct: purchased Reaction Biology Corp

smMLCK = target: T11, smMLCK (Homo sapiens, UniProt Q15746); assay type: biochemical; details: 10 μM ATP
T11 construct: purchased Reaction Biology Corp

BMX = target: T12, BMX (Homo sapiens, UniProt P51813); assay type: biochemical; details: 10 μM ATP
T12 construct: purchased Reaction Biology Corp

EPHB3 = target: T13, EPHB3 (Homo sapiens, UniProt P54753); assay type: biochemical; details: 10 μM ATP
T13 construct: purchased Reaction Biology Corp

CLK3 = target: T14, CLK3 (Homo sapiens, UniProt P49761); assay type: biochemical; details: 10 μM ATP
T14 construct: purchased Reaction Biology Corp. (Malvern, PA, USA)

CAMK1δ = CAMK1δ (Homo sapiens, UniProt Q8IU85)
GSK3β = GSK3β (Homo sapiens, UniProt P49841)
PKCα = PKCα (Homo sapiens, UniProt P17252)

T4 sequence (Q9HAZ1 whole entry): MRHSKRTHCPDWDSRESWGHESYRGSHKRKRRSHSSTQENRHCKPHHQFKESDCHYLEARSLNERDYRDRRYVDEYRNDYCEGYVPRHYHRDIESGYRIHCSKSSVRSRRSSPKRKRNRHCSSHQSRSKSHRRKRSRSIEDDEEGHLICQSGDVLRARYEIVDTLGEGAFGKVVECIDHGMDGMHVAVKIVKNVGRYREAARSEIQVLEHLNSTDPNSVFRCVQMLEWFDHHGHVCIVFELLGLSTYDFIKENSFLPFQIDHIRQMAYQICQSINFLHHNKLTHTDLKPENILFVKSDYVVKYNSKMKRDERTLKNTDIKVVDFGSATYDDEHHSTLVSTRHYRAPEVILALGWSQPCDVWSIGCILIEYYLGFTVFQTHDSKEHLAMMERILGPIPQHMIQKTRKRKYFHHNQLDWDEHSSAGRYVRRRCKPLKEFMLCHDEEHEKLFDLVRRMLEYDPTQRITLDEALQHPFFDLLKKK
Sequence of CAMK1δ (Q8IU85 whole entry): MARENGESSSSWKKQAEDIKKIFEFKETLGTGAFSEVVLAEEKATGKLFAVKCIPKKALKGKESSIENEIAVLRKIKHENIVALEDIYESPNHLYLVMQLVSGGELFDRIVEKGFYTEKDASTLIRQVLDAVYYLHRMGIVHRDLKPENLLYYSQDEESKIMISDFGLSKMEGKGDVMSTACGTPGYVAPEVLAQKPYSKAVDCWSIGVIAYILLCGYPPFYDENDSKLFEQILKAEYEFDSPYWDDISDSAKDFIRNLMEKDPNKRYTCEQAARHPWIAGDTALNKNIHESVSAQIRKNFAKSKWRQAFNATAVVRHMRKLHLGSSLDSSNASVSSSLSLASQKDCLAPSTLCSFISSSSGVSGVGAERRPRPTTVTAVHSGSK
T9 sequence (O75116 whole entry): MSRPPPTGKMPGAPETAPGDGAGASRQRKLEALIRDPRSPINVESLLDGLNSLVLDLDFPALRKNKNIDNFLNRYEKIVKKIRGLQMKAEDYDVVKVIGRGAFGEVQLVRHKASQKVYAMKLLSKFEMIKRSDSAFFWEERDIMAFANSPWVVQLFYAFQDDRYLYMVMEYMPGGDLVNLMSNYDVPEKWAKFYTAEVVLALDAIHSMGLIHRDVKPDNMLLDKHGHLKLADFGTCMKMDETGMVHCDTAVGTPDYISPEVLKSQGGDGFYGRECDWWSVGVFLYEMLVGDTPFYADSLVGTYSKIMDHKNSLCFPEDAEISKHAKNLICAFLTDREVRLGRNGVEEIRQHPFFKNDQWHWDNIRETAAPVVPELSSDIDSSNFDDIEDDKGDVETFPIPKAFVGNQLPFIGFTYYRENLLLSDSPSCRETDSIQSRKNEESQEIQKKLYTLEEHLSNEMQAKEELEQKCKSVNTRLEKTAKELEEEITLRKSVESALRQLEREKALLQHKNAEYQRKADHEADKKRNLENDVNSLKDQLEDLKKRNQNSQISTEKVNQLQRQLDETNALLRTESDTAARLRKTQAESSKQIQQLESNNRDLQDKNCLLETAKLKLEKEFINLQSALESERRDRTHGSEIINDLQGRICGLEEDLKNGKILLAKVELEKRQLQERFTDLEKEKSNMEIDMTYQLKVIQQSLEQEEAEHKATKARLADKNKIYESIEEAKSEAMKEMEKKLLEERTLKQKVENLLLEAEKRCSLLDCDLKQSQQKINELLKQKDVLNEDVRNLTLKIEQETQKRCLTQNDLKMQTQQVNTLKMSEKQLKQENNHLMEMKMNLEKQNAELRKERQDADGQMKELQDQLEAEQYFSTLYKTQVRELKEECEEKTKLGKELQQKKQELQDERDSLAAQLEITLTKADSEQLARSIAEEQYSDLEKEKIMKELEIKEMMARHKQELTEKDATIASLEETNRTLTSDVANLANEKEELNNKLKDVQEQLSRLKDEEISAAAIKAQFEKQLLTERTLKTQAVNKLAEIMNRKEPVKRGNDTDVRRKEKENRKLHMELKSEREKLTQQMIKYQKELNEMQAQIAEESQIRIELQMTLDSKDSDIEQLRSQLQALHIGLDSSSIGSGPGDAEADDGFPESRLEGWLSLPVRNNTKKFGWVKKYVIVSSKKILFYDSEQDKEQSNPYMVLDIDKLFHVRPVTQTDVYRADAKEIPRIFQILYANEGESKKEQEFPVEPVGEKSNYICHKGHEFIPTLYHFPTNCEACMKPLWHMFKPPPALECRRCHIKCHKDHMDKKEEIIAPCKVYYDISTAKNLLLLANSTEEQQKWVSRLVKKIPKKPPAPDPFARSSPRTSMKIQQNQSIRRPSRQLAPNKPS
T10 sequence (Q16512 whole entry): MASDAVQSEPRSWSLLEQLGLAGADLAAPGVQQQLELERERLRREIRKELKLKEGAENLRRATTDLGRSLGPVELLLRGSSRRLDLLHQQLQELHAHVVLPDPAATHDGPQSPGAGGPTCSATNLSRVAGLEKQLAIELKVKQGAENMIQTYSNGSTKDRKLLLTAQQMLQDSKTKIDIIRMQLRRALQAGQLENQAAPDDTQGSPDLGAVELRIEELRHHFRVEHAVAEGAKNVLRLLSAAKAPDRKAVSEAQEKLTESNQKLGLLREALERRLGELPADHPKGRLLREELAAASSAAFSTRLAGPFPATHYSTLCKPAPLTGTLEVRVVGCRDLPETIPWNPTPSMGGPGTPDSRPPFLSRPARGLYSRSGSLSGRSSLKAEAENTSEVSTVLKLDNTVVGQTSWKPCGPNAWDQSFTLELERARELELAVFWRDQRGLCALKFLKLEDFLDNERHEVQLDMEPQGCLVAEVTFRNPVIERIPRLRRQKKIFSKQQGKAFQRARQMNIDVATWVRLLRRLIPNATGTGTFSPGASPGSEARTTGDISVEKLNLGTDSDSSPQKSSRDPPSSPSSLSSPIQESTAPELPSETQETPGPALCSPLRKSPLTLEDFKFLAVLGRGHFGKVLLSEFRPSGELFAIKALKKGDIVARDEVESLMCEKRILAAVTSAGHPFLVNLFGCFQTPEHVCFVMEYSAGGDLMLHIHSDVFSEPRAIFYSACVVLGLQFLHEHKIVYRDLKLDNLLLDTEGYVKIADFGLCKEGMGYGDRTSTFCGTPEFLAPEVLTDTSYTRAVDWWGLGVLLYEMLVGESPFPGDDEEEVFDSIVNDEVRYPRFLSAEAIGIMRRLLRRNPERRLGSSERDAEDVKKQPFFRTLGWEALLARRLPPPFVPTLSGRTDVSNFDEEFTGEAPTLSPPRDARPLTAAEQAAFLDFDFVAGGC
T3 sequence (O43187 whole entry): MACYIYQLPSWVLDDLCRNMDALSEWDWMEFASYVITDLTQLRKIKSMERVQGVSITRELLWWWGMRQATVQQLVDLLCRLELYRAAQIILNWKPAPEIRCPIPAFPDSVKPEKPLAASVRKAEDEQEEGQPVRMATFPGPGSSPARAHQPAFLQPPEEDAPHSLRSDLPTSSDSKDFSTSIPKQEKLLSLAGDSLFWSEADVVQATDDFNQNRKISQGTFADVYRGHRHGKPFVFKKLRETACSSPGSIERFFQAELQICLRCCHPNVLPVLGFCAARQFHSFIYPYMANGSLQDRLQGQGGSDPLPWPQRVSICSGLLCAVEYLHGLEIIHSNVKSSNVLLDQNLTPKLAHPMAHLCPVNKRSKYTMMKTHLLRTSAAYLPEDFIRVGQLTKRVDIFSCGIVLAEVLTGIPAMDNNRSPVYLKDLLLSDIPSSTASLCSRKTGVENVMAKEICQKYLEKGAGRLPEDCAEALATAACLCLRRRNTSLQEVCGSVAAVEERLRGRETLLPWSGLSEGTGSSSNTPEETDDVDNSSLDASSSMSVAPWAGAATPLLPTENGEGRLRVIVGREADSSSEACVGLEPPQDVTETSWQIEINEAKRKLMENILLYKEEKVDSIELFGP
T2 sequence (Q9BZL6 whole entry): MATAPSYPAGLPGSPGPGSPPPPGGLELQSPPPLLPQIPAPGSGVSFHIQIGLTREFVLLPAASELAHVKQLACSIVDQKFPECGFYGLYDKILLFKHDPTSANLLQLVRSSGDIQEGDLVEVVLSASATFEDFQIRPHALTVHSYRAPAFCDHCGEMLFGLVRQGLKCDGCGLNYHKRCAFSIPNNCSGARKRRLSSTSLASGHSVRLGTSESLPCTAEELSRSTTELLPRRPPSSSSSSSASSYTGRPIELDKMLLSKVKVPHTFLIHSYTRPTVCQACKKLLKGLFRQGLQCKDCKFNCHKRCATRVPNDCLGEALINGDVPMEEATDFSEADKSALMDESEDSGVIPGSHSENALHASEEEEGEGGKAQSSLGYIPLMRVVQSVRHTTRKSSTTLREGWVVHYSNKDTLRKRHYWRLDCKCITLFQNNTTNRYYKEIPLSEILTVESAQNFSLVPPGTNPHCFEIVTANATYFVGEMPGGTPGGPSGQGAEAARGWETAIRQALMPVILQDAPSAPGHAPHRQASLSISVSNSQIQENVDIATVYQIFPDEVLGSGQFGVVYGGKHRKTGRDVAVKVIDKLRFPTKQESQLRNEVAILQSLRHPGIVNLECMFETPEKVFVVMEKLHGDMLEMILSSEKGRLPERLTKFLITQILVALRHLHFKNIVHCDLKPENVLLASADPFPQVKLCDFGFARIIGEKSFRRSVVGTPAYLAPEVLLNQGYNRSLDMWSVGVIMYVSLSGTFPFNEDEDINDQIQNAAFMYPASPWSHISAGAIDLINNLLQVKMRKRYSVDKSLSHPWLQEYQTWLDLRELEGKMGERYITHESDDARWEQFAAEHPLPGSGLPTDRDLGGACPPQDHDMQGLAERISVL

For `Cn1cncc1C1=CN(c2ncnc3nc[nH]c23)CCS1` [Compound 1, Aplithianine A], the inhibition at 2 µM (PKG2) was 99.4%, the inhibition at 0.05 µM (PKD2; 50 nM) was 38.2% and the inhibition at 2 µM (PKD2; 2 μM) was 93.1%. For the same compound, the inhibition at 0.05 µM (IRAK2; 50 nM) was 30.7%, the inhibition at 2 µM (IRAK2; 2 μM) was 85% and the inhibition at 0.05 µM (CLK4; 50 nM, 10 μM ATP) was 27.1%. For the same compound, the inhibition at 2 µM (CLK4; 2 μM, 10 μM ATP) was 84.7%, the IC50 (CLK4; 10 μM ATP, read-out: CLK4 IC50) was 0.153 µM and the “CLK4 Differential (as compared to PKG1a)” value (CLK4; IC50 (kinase)/IC50 (PKG1a)) was 13.49. For the same compound, the IC50 (CLK4; Table 4 dose-response, read-out: CLK4 IC50 Values) was 0.154 µM, the inhibition at 0.05 µM (PKCv/PKD3; 50 nM, 10 μM ATP) was 25% and the inhibition at 2 µM (PKCv/PKD3; 2 μM, 10 μM ATP) was 88.9%. For the same compound, the IC50 (PKCv/PKD3; 10 μM ATP, read-out: PKCv/PKD3 IC50) was 0.13 µM, the “PKCnu Differential (as compared to PKG1a)” value (PKCv/PKD3; IC50 (kinase)/IC50 (PKG1a)) was 11.92 and the IC50 (PKCv/PKD3; Table 4 dose-response, read-out: PKCnu IC50 Values) was 0.136 µM. The inhibition at 0.05 µM (FLT3; 50 nM, 10 μM ATP) was 22.2%, the inhibition at 2 µM (FLT3; read-out: FLT3 % inhibition) was 88.1% and the inhibition at 0.05 µM (PKCμ/PKD1; 50 nM) was 21.3%. It also gave an inhibition at 2 µM (PKCμ/PKD1; 2 μM) of 89.2%, an inhibition at 0.05 µM (DYRK2; 50 nM, 10 μM ATP) of 20.6% and an inhibition at 2 µM (DYRK2; 2 μM, 10 μM ATP) of 91.2%. The IC50 (DYRK2; 10 μM ATP, read-out: DYRK2 IC50) was 0.142 µM, the “DYRK2 Differential (as compared to PKG1a)” value (DYRK2; IC50 (kinase)/IC50 (PKG1a)) was 13.27 and the IC50 (DYRK2; Table 4 dose-response, read-out: DYRK2 IC50 Values) was 0.151 µM. For the same compound, the inhibition at 0.05 µM (ROCK2; 50 nM) was 19.6%, the inhibition at 2 µM (ROCK2; 2 μM) was 93.3% and the inhibition at 0.05 µM (PKN1; 50 nM) was 18.8%. For the same compound, the inhibition at 2 µM (PKN1; 2 μM) was 87.7%, the inhibition at 0.05 µM (smMLCK; 50 nM) was 18.2% and the inhibition at 2 µM (smMLCK; 2 μM) was 91.1%. For the same compound, the inhibition at 0.05 µM (BMX; 50 nM) was 13.9%, the inhibition at 2 µM (BMX; 2 μM) was 40% and the inhibition at 0.05 µM (EPHB3; 50 nM) was 12.8%. For the same compound, the inhibition at 2 µM (EPHB3; 2 μM) was 20.2%, the IC50 (CLK3) was 14.1 µM and the IC50 (CAMK1δ) was 18 to 65 µM. It also gave an IC50 (CAMK1δ; read-out: CAMK1δ IC50, 10 μM ATP) of 52.3 µM, an IC50 (GSK3β) of 0.043 to 0.189 µM and an IC50 (GSK3β; read-out: GSK3β IC50, 10 μM ATP) of 0.099 µM. For the same compound, the IC50 (PKCα) was 0.8 to 6.6 µM and the IC50 (PKCα; read-out: PKCα IC50, 10 μM ATP) was 1.32 µM.
